3 compounds from patent US8383088B2, “Coumestan-like antioxidants and UV absorbants” (BASF SE, priority 2007, dated 2013) can be followed below.

This assay is described as follows: DPPH assay of antioxidative (antiradical) activity. The conditions noted are these: measured in EC50 and 1/EC50 values. An excerpt:
For tests of antioxidative activity, the DPPH assay is used. DPPH (2,2-Diphenyl-1-picrylhydrazyl) is a stable radical, which absorbs in its radical form at 515 nm. Upon reduction by an antioxidant (AH), the absorption disappears:
The rate of reaction (1) can be rather different for different antioxidants. In the case of the vitamins C and E, the equilibrium is reached in several minutes, however for other antioxidants it may also take hours. In the test, the ratio of the molar concentrations of the antioxidant and DPPH is varied (this ratio is named “EC”=efficient concentration), and the concentration of DPPH in the equilibrium state is measured for each ratio. Antiradical activity is defined as the amount of antioxidant necessary to decrease the initial DPPH-concentration by 50%, and is characterized by the so-called EC50 value. The smaller the EC50 value, the more efficient is the antioxidant. Thus, the inverse, 1/EC50, can be used to quantify the antiradical power.
Solutions of DPPH and the antioxidants in ethanol are prepared separately and added together for starting the reaction (0.5 cm^3 of a 250 μM antioxidant solution is added to 2.5 cm^3 of a 100 μM DPPH solution). The absorption is measured using a Perkin Elmer Lambda 20 spectrophotometer.
On the technique in general: Loss of DPPH colour is used to gauge radical scavenging.
Take `Cc1cc2oc3cc(O)c(O)cc3c2c(=O)o1` [Compound A-2, 7,8-dihydroxy-3-methyl-1H-pyrano[4,3-b]benzofuran-1-one]: the “antioxidant/radical power compared to state-of-the-art antioxidants (101) and (102)” value is “significantly higher antioxidant/radical power”.
Regarding `Cl.NCCCCCc1cc2oc3cc(O)c(O)cc3c2c(=O)o1` [Compound A-23], the “antioxidant/radical power compared to state-of-the-art antioxidants (101) and (102)” value is on record as “significantly higher antioxidant/radical power”.
`COc1c(O)c(O)cc2c1oc1cc(C)oc(=O)c12` [Compound A-1, 7,8-dihydroxy-6-methoxy-3-methyl-1H-pyrano[4,3-b]benzofuran-1-one]: the “antioxidant/radical power compared to state-of-the-art antioxidants (101) and (102)” value is reported as “significantly higher antioxidant/radical power”.
